Results taken from PubChem BioAssay AID463203 (Broad Institute, 2010).
Active and inactive are the calls of the source.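 Rule for the calls: active = more than half of replicate measurements showing over 20% loss of kinase signal relative to plate controls; inconclusive = some but at most half of replicates over 20% loss; inactive = no replicate over 20% signal loss.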

Molecular target: Glycogen synthase kinase-3 alpha (Homo sapiens) (UniProt P49840)
Test: concentration-response blocking of human GSK3A – biochemical, luminescence, cell-free homogeneous, retest, dose response (AID 463203)
Details: GSK-3 alpha enzyme, ADP-Glo luminescence, 60 min

Glycogen synthase kinase-3 alpha (Homo sapiens), sequence (P49840 whole entry, looked up): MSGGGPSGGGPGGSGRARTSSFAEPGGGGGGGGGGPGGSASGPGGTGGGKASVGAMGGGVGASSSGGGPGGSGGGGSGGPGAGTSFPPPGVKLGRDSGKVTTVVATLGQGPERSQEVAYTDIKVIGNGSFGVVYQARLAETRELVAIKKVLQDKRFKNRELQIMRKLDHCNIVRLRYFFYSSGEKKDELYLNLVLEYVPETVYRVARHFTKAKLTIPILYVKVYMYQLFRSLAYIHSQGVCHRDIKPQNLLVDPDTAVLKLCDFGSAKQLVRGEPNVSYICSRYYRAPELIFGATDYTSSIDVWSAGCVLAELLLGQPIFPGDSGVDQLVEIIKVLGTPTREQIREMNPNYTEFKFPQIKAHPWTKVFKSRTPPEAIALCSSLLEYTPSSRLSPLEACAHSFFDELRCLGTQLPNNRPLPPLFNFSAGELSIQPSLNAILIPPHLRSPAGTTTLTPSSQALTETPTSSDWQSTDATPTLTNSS

Compound	AC50
Cc1ccc2oc(=O)c3cnn(CC(=O)N4CCc5ccccc5C4)c3c2c1	> 30 µM (inactive)
COc1ccc2c(c1)C(SCC(=O)NCc1ccccc1)CC(C)(C)O2 (stereo unspecified)	> 30 µM (inactive)
CCc1cc2c3c(c(=O)oc2cc1O)CCCC3	> 30 µM (inactive)
COc1cccc(Cn2nnc(C(=O)Nc3cc(Cl)ccc3OC)c2N)c1	> 30 µM (inactive)
O=C(O)C1CC(O)CN1C(=S)Nc1ccccc1 (stereo unspecified)	> 30 µM (inactive)
O=c1c(O)c(-c2cc(O)c(O)c(O)c2)oc2cc(O)cc(O)c12	4.13 µM
COc1cc(/C(C)=N/NC(=O)c2nnn(-c3nonc3N)c2-c2cccs2)ccc1O	1.95 µM
CCOc1ccc(S(=O)(=O)Nc2cccc(C(=O)NCCCn3ccnc3)c2)cc1	> 30 µM (inactive)
CCc1ccc(/C=c2\s/c(=C\C(=O)C(C)(C)C)[nH]c2=O)cc1	> 30 µM (inactive)
CC(=O)c1cccc(NC(=O)c2cc(-n3cnnc3)ccc2Cl)c1	> 30 µM (inactive)
COc1cc(C2CC(=O)Nc3n[nH]c(-c4ccccc4)c32)cc(OC)c1OC (stereo unspecified)	> 30 µM (inactive)
CN1CCN(c2ccc(NC(=O)c3ccc(Br)o3)cc2)CC1	> 30 µM (inactive)
NC(=O)c1ccsc1NC(=O)C1CCCCC1	> 30 µM (inactive)
NC(=O)NCC12CC3CC(CC(C3)C1)C2	> 30 µM (inactive)
O=C(c1ccco1)N(Cc1cccc([N+](=O)[O-])c1)c1ccc(Br)cc1	> 30 µM (inactive)
O=c1[nH]nc(SCc2nnc(-c3cccc(Cl)c3)o2)n1C1CCCCC1	> 30 µM (inactive)
Cc1cccc2c(N=Nc3ccccc3)c(O)[nH]c12	> 30 µM (inactive)
COc1cc(C(=O)NCC(=O)N/N=C\C(C)=C/c2ccccc2)cc(OC)c1OC	> 30 µM (inactive)
O=C(COc1ccccc1Cl)Nc1ccc(Cl)cn1	> 30 µM (inactive)
CC(=O)N(C)c1ccc(N=Cc2cc3c(cc2[N+](=O)[O-])OCO3)cc1	21.2 µM
COc1ccc(/C=C2\Oc3cc(OCC(=O)N4CCC[C@H]4C(=O)O)ccc3C2=O)cc1OC	> 30 µM (inactive)

Compound	AC50
Cc1ccc(/C=C2\C(=O)Nc3ccccc32)o1	31.4 µM
O=C(CSCc1ccccn1)Nc1ccccc1	> 30 µM (inactive)
Cc1ccc2c(c1N)C(=O)c1ccccc1C2=O	> 30 µM (inactive)
O=C(/C=C/c1cccc2ccccc12)c1ccncc1	> 30 µM (inactive)
COc1ccc(Nc2nc(N)nc(COc3ccc(OC)cc3)n2)cc1	> 30 µM (inactive)
CN(C)CCCNS(=O)(=O)c1ccc(-n2nnc3ccccc32)c([N+](=O)[O-])c1	> 30 µM (inactive)
CCOC(=O)CSc1nc(N)c(C#N)c(-c2cccs2)c1C#N	> 30 µM (inactive)
COc1cccc(C(=O)O/N=C(\N)c2ccccn2)c1	16.8 µM
O=C1NC(=Nc2cccc(O)c2)S/C1=C\c1cccc([N+](=O)[O-])c1	> 30 µM (inactive)
CCOc1ccc(-n2c(O)c(C=NCCCn3ccnc3)c(=O)[nH]c2=O)cc1	22.4 µM
COc1cccc(CNc2nc(C(F)(F)F)nc3ccccc23)c1	> 30 µM (inactive)
N#CC1=C2SCN(Cc3ccco3)CN2C(=O)CC1c1cccc2ccccc12 (stereo unspecified)	> 30 µM (inactive)
CCOc1cc(/C=N/O)ccc1OCc1ccc([N+](=O)[O-])cc1	> 30 µM (inactive)
COc1ccc([N+](=O)[O-])cc1NC(=O)CCN1CCN(CCO)CC1	> 30 µM (inactive)
CNC(=O)c1ccc(NC(=O)C2CCN(c3ncnc4sc(C)c(C)c34)CC2)cc1	> 30 µM (inactive)
CC(C)OC(=O)CSc1nc(N)c(C#N)c(-c2ccco2)c1C#N	> 30 µM (inactive)
COc1ccccc1C(=O)Nc1nc(C)cc(C)n1	> 30 µM (inactive)
Cc1cc(C)nc(NC(=O)/C=C/c2cccs2)c1	> 30 µM (inactive)
CC1(C)CC(=O)C(C2c3ccccc3S(=O)(=O)c3ccccc32)C(=O)C1	> 30 µM (inactive)
Cc1ccc2c(c1)COc1c3ccc(C(=O)N4CCOCC4)cc3nn1-2	> 30 µM (inactive)
